In ChEMBL document CHEMBL1201862, “PubChem BioAssay data set” (2004):
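Values below derive from 48-hour exposures of cells grown in 96-well plates, with endpoints linearly interpolated between the two concentrations bracketing the appropriate inhibition level. GI50: concentration for 50% inhibition of growth.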 Calls of active or inactive are those of the source. Cut-off read from the data, not from the text of the source: active = GI50 up to about 1.1 µM and inactive = higher.

Legend:
Assay in all cases: DTP human tumour cell line panel, 48 h
[1] = test system: HL-60
[2] = test system: MDA-MB-231
[3] = test system: Hs-578T
[4] = test system: SNB-75
[5] = test system: MOLT-4
[6] = test system: HOP-62
[7] = test system: OVCAR-5
[8] = test system: CCRF-CEM
[9] = test system: LOX IMVI
[10] = test system: HOP-92
[11] = test system: 786-0
[12] = test system: A498
[13] = test system: HCT-116
[14] = test system: KM12
[15] = test system: OVCAR-8
[16] = test system: COLO 205
[17] = test system: PC-3
[18] = test system: U-251
[19] = test system: NCI-H460
[20] = test system: T47D
[21] = test system: UACC-257
[22] = test system: SK-OV-3
[23] = test system: NCI-H23
[24] = test system: IGROV-1
[25] = test system: CAKI-1
[26] = test system: SN12C
[27] = test system: OVCAR-3
[28] = test system: HCT-15
[29] = test system: NCI-H522
[30] = test system: HCC 2998
[31] = test system: MDA-N
[32] = test system: M14
[33] = test system: NCI-H226
[34] = test system: K562
[35] = test system: UACC-62
[36] = test system: RXF 393
[37] = test system: SR
[38] = test system: MCF7
[39] = test system: EKVX
[40] = test system: NCI/ADR-RES
[41] = test system: UO-31
[42] = test system: SNB-19
[43] = test system: SW-620
[44] = test system: ACHN
[45] = test system: TK-10
[46] = test system: MDA-MB-435
[47] = test system: SF-539
[48] = test system: SK-MEL-2
[49] = test system: SF-295
[50] = test system: OVCAR-4
[51] = test system: SF-268
[52] = test system: SK-MEL-5
[53] = test system: DU-145
[54] = test system: BT-549
[55] = test system: SK-MEL-28
[56] = test system: A549
[57] = test system: HT-29
[58] = test system: RPMI-8226
[59] = test system: Malme-3M

Question: What does the source list for `CC(=O)O[C@@H]1[C@H]2[C@@H](OC(=O)c3ccccc3)[C@@H](C)C[C@]2(O)[C@H](OC(C)=O)[C@@]2(C)[C@@H]3C[C@@](C)(OC(C)=O)C[C@@H](OC(C)=O)[C@@]3(OC(C)=O)C[C@@]12C`?
Answer: GI50 [1]: > 10 µM (inactive); GI50 [2]: > 10 µM (inactive); GI50 [3]: > 10 µM (inactive); GI50 [4]: > 10 µM (inactive); GI50 [5]: > 10 µM (inactive); GI50 [6]: > 10 µM (inactive); GI50 [7]: > 10 µM (inactive); GI50 [8]: > 10 µM (inactive); GI50 [9]: > 10 µM (inactive); GI50 [10]: > 10 µM (inactive); GI50 [11]: > 10 µM (inactive); GI50 [12]: > 10 µM (inactive); GI50 [13]: > 10 µM (inactive); GI50 [14]: > 10 µM (inactive); GI50 [15]: > 10 µM (inactive); GI50 [16]: > 10 µM (inactive); GI50 [17]: > 10 µM (inactive); GI50 [18]: > 10 µM (inactive); GI50 [19]: > 10 µM (inactive); GI50 [20]: > 10 µM (inactive); GI50 [21]: > 10 µM (inactive); GI50 [22]: > 10 µM (inactive); GI50 [23]: > 10 µM (inactive); GI50 [24]: > 10 µM (inactive); GI50 [25]: > 10 µM (inactive); GI50 [26]: > 10 µM (inactive); GI50 [27]: > 10 µM (inactive); GI50 [28]: > 10 µM; GI50 [29]: > 10 µM (inactive); GI50 [30]: > 10 µM (inactive); GI50 [31]: > 10 µM (inactive); GI50 [32]: > 10 µM (inactive); GI50 [33]: > 10 µM (inactive); GI50 [34]: > 10 µM (inactive); GI50 [35]: > 10 µM (inactive); GI50 [36]: > 10 µM (inactive); GI50 [37]: > 10 µM (inactive); GI50 [38]: > 10 µM (inactive); GI50 [39]: > 10 µM (inactive); GI50 [40]: > 10 µM (inactive); GI50 [41]: > 10 µM (inactive); GI50 [42]: > 10 µM (inactive); GI50 [43]: > 10 µM (inactive); GI50 [44]: > 10 µM (inactive); GI50 [45]: > 10 µM (inactive); GI50 [46]: > 10 µM (inactive); GI50 [47]: > 10 µM (inactive); GI50 [48]: > 10 µM (inactive); GI50 [49]: > 10 µM (inactive); GI50 [50]: > 10 µM (inactive); GI50 [51]: > 10 µM (inactive); GI50 [52]: > 10 µM (inactive); GI50 [53]: > 10 µM (inactive); GI50 [54]: > 10 µM (inactive)

Question: Which GI50 [55] does the source give for `C=C(Br)C(C)(Br)CCC(Br)C(C)(C)Cl` (stereo unspecified) here?
Answer: Its GI50 is 16.3 µM (inactive).

Question: What about the GI50 [1] of the same compound?
Answer: The GI50 was 2.81 µM (inactive).

Question: What about the GI50 [2] of the same compound?
Answer: Its GI50 is 17.8 µM (inactive).

Question: What about the GI50 [3] of the same compound?
Answer: Its GI50 is 26.4 µM (inactive).

Question: What about the GI50 [4] of the same compound?
Answer: Its GI50 is 16.5 µM (inactive).

Question: What about the GI50 [5] of the same compound?
Answer: Its GI50 is 2.54 µM (inactive).

Question: And the GI50 [6]?
Answer: The GI50 was 23 µM (inactive).

Question: What about the GI50 [7] of the same compound?
Answer: The GI50 was 18.8 µM (inactive).

Question: What about the GI50 [8] of the same compound?
Answer: Its GI50 is 2.96 µM (inactive).

Question: What about the GI50 [10] of the same compound?
Answer: Its GI50 is 14.6 µM (inactive).

Question: What about the GI50 [11] of the same compound?
Answer: Its GI50 is 17.8 µM (inactive).

Question: And the GI50 [12]?
Answer: The GI50 was 20.8 µM (inactive).

Question: What about the GI50 [13] of the same compound?
Answer: Its GI50 is 11.7 µM (inactive).

Question: And the GI50 [14]?
Answer: Its GI50 is 16.6 µM (inactive).

Question: What about the GI50 [15] of the same compound?
Answer: Its GI50 is 17.8 µM (inactive).

Question: And the GI50 [16]?
Answer: Its GI50 is 18.5 µM (inactive).

Question: And the GI50 [17]?
Answer: Its GI50 is 20.4 µM (inactive).

Question: What about the GI50 [18] of the same compound?
Answer: The GI50 was 16.2 µM (inactive).

Question: What about the GI50 [19] of the same compound?
Answer: The GI50 was 18.3 µM (inactive).

Question: What about the GI50 [20] of the same compound?
Answer: The GI50 was 20.5 µM (inactive).

Question: What about the GI50 [21] of the same compound?
Answer: The GI50 was 19.1 µM (inactive).

Question: And the GI50 [22]?
Answer: Its GI50 is 27.8 µM (inactive).

Question: And the GI50 [23]?
Answer: The GI50 was 16.3 µM (inactive).

Question: What about the GI50 [24] of the same compound?
Answer: Its GI50 is 13.6 µM (inactive).

Question: What about the GI50 [26] of the same compound?
Answer: The GI50 was 20.2 µM (inactive).

Question: What about the GI50 [27] of the same compound?
Answer: The GI50 was 18.6 µM (inactive).

Question: What about the GI50 [28] of the same compound?
Answer: Its GI50 is 13 µM.

Question: And the GI50 [29]?
Answer: The GI50 was 6.62 µM (inactive).

Question: What about the GI50 [30] of the same compound?
Answer: The GI50 was 17.4 µM (inactive).

Question: What about the GI50 [31] of the same compound?
Answer: The GI50 was 19.2 µM (inactive).

Question: And the GI50 [56]?
Answer: Its GI50 is > 54.7 µM (inactive).

Question: And the GI50 [32]?
Answer: The GI50 was 17.3 µM (inactive).

Question: What about the GI50 [33] of the same compound?
Answer: Its GI50 is 31 µM (inactive).

Question: And the GI50 [34]?
Answer: The GI50 was 10.2 µM (inactive).

Question: And the GI50 [35]?
Answer: The GI50 was 20.4 µM (inactive).

Question: What about the GI50 [36] of the same compound?
Answer: The GI50 was 20 µM (inactive).

Question: And the GI50 [57]?
Answer: The GI50 was 17.9 µM (inactive).

Question: What about the GI50 [37] of the same compound?
Answer: Its GI50 is 3.5 µM (inactive).

Question: And the GI50 [38]?
Answer: Its GI50 is 14.5 µM (inactive).

Question: What about the GI50 [39] of the same compound?
Answer: The GI50 was 22.8 µM (inactive).

Question: What about the GI50 [40] of the same compound?
Answer: Its GI50 is 23.7 µM (inactive).

Question: And the GI50 [58]?
Answer: The GI50 was 15.4 µM (inactive).

Question: And the GI50 [41]?
Answer: Its GI50 is 17.7 µM (inactive).

Question: And the GI50 [42]?
Answer: The GI50 was 18.8 µM (inactive).

Question: What about the GI50 [43] of the same compound?
Answer: Its GI50 is 13 µM (inactive).

Question: What about the GI50 [44] of the same compound?
Answer: Its GI50 is 19.1 µM (inactive).

Question: And the GI50 [45]?
Answer: Its GI50 is 18.2 µM (inactive).

Question: And the GI50 [46]?
Answer: The GI50 was 19.4 µM (inactive).

Question: What about the GI50 [47] of the same compound?
Answer: The GI50 was 16.8 µM (inactive).

Question: What about the GI50 [48] of the same compound?
Answer: Its GI50 is 25.7 µM (inactive).

Question: And the GI50 [49]?
Answer: Its GI50 is 16.9 µM (inactive).

Question: And the GI50 [50]?
Answer: Its GI50 is 18.9 µM (inactive).

Question: What about the GI50 [51] of the same compound?
Answer: Its GI50 is 17.9 µM (inactive).

Question: What about the GI50 [52] of the same compound?
Answer: Its GI50 is 17.2 µM (inactive).

Question: What about the GI50 [53] of the same compound?
Answer: Its GI50 is 21.5 µM (inactive).

Question: And the GI50 [59]?
Answer: Its GI50 is 20.1 µM (inactive).

Question: And the GI50 [54]?
Answer: The GI50 was 23.8 µM (inactive).
